Measured values as given in patent US20230159467A1, “NOVEL COMPOUNDS USEFUL IN THE TREATMENT AND/OR PREVENTION OF A DISEASE, DISORDER OR CONDITION ASSOCIATED WITH ANGIOTENSIN II” (Vicore Pharma AB, priority 2020, published 2023).
≈ marks a conversion by molar mass, not a printed value.

Experiments:
CYP2C9 = CYP2C9 (Homo sapiens, UniProt P11712); experiment: CYP450 inhibition assay, pooled human liver microsomes, diclofenac substrate; conditions: for CYP 450 Inhibition CYP2C9: at 10 μM; for inhibition at 10 min, 10 µM: both, human, pooled human liver microsomes, pH 7.4, probe diclofenac
[1] = Stability in rat liver microsomes; type: in vitro ADME; conditions: half-life
Method: (§1) Stability in liver microsomes. Human, mouse and rat liver microsomes were used to assess the metabolic stability for the compounds. Metabolic stability was determined in 0.5 mg/mL human, mouse or rat liver microsomes at a compound concentration of 1 μM in 100 mM potassium phosphate buffer (pH 7.4) in a total incubation volume of 500 μL by Eurofins. The assay matrix was: human liver microsomes: mixed gender and pool of 50, rat liver microsomes: male, Sprague-Dawley, pool of 100 or more and mouse liver microsomes: male,CD-1, pool of 250 or more. Final microsomal protein concentration: 0.1mg/mL. The test concentration was 0.1 μM with 0.01% DMSO, 0.25% acetonitrile and 0.25% methanol by default. […] The reaction was initiated by adding NADPH-generating system and was incubated for 0, 15, 30, 45, and 60 min. The reaction was stopped by transferring the incubation mixture to acetonitrile/methanol. Samples were then mixed and centrifuged. Four reference compounds were tested in each assay. Propranolol and imipramine are relatively stable, whereas verapamil and terfenadine are readily metabolized inhuman liver microsomes. Samples were analyzed by HPLC-MS/MS using selected reaction monitoring. The HPLC system consisted of a binary LC pump with autosampler, a C-18 column, and a gradient. Peak areas corresponding to the test compound were recorded. The compound remaining was calculated by comparing the peak area at each time point to time zero. The half-life was calculated from the slope of the initial linear range of the logarithmic curve of compound remaining (%) vs. time, assuming first order kinetics. In addition, the intrinsic clearance (Clint) was calculated.^19,20

CYP2B6 = molecular target: T1, CYP2B6 (Homo sapiens, UniProt P20813); experiment: CYP450 inhibition assay, pooled human liver microsomes, bupropion substrate; conditions: for CYP 450 Inhibition CYP2B6: at 10 μM; for inhibition at 10 min, 10 µM: both, human, pooled human liver microsomes, pH 7.4, probe bupropion
T1 sequence (P20813 1-491): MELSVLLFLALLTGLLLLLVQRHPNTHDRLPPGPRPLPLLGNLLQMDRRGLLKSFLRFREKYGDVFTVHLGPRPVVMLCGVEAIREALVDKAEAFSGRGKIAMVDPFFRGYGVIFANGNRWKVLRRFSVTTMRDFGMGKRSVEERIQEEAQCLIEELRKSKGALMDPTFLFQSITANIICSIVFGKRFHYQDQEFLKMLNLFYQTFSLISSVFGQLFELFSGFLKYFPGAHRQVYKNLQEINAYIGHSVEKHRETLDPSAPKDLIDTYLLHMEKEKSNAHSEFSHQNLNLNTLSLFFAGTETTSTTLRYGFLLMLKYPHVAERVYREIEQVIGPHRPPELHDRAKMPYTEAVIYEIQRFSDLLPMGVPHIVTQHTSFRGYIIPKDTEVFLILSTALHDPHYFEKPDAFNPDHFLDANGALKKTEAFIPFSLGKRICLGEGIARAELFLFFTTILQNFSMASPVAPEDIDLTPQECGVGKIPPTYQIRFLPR

[2] = Stability in mouse liver microsomes; type: in vitro ADME; conditions: half-life
Method: as §1

CYP2C19 = CYP2C19 (Homo sapiens, UniProt P33261); experiment: CYP450 inhibition assay, pooled human liver microsomes, omeprazole substrate; conditions: for CYP 450 Inhibition CYP2C19: at 10 μM; for inhibition at 10 min, 10 µM: both, human, pooled human liver microsomes, pH 7.4, probe omeprazole
CYP3A = experiment: CYP450 inhibition assay, pooled human liver microsomes, midazolam substrate; conditions: for CYP 450 Inhibition CYP3A midazolam: at 10 μM, midazolam substrate; for inhibition at 10 min, 10 µM: both, human, pooled human liver microsomes, pH 7.4, probe midazolam
[3] = Kinetic solubility in PBS pH 7.4; type: physicochemical; conditions: Dulbecco's PBS buffer, aqueous buffer, kinetic from dmso stock; PBS pH 7.4, 24 h room temperature, 2% DMSO
Method: Kinetic solubility. Dulbecco's PBS buffer was used (NaCl 137 mM, KCl 2.7 mM, Na2HPO4 8.1 mM, KH2PO4 1.5 mM with pH 7.4). The test compound is prepared at 200 μM in the PBS buffer from a 10 mM DMSO stock solution. The final DMSO concentration is 2%. The buffer samples were mixed thoroughly followed by incubation at room temperature for 24 h. At the end of the incubation, the buffer samples were centrifuged and supernatants were then injected for the HPLC analysis. A calibration standard of the test compound was prepared at 200 μM in methanol/water (3/2, v/v) from a 10 mM DMSO stock solution on the day of HPLC analysis. The analysis was conducted by HPLC-UV/VIS with photodiode array detection, with monitoring at 205, 230, 260, and 300 nm wavelengths. The HPLC system consisted of a C18 column using a gradient of A and B (A=12 mM ammonium formate, 6 mM formic acid in water, pH 4.0, B=6 mM ammonium formate, 3 mM formic acid acetonitrile/water (9/1, v/v)). Reference compounds used were metoprolol, rifampicin, ketoconazole, phenytoin, haloperidol, simvastatin, diethylstilbestrol, and tamoxifen, ranking from fully soluble (200 μM) to poorly soluble (<1μM). […] The range of the assay was approximately 0.5 μM to 200 μM. The chromatographic purity (%) was determined as the peak area of the principal peak relative to the total integrated peak areas in the HPLC chromatogram of the calibration standard.

[4] = Stability in human liver microsomes; type: in vitro ADME; conditions: half-life
Procedure, shortened: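 Pooled liver microsomes (human mixed gender; male Sprague-Dawley rat; male CD-1 mouse) at final 0.1 mg/mL protein, compound 0.1 μM, 100 mM potassium phosphate pH 7.4, NADPH-initiated, sampled 0–60 min. Parent remaining by HPLC-MS/MS vs time zero; half-life from log-linear slope assuming first-order kinetics, plus Clint.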

CYP2D6 = CYP2D6 (Homo sapiens, UniProt P10635); experiment: CYP450 inhibition assay, pooled human liver microsomes, dextromethorphan substrate; conditions: for CYP 450 Inhibition CYP2D6: at 10 μM; for inhibition at 10 min, 10 µM: both, human, pooled human liver microsomes, pH 7.4, probe dextromethorphan
CYP1A = molecular target: T2, CYP1A (Homo sapiens, UniProt P05177); experiment: CYP450 inhibition assay, pooled human liver microsomes, phenacetin substrate; conditions: for CYP 450 Inhibition CYP1A: at 10 μM; for inhibition at 10 min, 10 µM: both, human, pooled human liver microsomes, pH 7.4, probe phenacetin
T2 sequence (P05177 1-516): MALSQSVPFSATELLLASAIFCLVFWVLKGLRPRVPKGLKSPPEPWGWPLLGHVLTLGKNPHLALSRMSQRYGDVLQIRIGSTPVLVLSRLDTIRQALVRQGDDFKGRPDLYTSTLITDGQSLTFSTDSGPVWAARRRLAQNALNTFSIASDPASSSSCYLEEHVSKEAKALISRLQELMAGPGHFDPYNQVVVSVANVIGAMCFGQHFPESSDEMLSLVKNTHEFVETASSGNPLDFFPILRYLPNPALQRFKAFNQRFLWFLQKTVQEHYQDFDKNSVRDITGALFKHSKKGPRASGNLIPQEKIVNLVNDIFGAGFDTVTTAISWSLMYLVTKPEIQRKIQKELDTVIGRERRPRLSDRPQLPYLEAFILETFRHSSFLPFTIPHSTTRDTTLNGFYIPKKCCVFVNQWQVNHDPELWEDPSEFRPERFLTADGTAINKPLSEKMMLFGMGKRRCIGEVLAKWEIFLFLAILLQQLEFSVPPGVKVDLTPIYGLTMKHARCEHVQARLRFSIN

CYP2C19, sequence (P33261 whole entry): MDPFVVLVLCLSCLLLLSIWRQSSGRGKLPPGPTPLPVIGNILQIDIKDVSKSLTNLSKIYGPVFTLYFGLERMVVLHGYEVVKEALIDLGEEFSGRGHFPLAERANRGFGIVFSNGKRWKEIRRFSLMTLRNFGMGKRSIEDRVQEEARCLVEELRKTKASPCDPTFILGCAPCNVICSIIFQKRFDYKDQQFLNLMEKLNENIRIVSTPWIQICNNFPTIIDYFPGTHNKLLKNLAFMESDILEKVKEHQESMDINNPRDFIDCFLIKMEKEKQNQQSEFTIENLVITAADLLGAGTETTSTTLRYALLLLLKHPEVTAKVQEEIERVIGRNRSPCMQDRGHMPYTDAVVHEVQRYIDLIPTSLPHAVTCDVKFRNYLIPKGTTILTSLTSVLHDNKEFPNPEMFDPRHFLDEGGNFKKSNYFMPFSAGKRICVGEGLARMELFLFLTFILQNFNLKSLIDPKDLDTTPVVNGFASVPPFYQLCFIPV
CYP2C9, sequence (P11712 whole entry): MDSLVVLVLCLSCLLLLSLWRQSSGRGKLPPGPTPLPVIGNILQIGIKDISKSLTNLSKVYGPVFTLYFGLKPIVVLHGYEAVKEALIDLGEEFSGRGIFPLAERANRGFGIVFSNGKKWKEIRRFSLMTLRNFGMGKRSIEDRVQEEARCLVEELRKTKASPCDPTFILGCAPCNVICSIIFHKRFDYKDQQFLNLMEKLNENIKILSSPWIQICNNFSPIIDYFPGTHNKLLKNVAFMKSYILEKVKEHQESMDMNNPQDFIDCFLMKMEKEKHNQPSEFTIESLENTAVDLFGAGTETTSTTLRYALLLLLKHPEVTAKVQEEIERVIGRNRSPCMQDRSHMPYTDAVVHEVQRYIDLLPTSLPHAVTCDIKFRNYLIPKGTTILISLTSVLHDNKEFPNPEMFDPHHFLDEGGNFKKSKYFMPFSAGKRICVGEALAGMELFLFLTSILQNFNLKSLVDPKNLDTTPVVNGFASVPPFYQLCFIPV
CYP2D6, sequence (P10635 whole entry): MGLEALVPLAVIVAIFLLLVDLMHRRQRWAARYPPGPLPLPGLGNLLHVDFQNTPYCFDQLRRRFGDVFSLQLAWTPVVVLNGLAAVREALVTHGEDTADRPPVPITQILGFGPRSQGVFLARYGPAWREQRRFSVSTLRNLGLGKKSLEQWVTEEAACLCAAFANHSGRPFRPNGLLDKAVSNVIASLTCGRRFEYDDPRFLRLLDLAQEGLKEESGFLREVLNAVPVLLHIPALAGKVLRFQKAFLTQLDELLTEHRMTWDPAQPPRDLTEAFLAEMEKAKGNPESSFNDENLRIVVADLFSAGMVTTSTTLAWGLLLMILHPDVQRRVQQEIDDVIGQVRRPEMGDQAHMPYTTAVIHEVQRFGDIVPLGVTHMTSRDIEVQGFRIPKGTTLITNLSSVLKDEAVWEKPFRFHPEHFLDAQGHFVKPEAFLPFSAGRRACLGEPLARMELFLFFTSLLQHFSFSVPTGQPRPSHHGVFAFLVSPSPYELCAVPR

Compound | CYP 450 Inhibition CYP2C9 (CYP2C9) [%] | Stability in liver microsomes RLM [1] [min] | CYP 450 Inhibition CYP2B6 (CYP2B6) [%] | Stability in liver microsomes MLM [2] [min] | CYP 450 Inhibition CYP2C19 (CYP2C19) [%] | CYP 450 Inhibition CYP3A midazolam (CYP3A) [%] | solubility kinetic at 24 h [3] [µM] | Stability in liver microsomes HLM [4] [min] | CYP 450 Inhibition CYP2D6 (CYP2D6) [%] | CYP 450 Inhibition CYP1A (CYP1A) [%] | inhibition at 10 min, 10 µM (CYP2C9) [%] | inhibition at 10 min, 10 µM (CYP2B6) [%] | inhibition at 10 min, 10 µM (CYP2C19) [%] | inhibition at 10 min, 10 µM (CYP3A) [%] | inhibition at 10 min, 10 µM (CYP2D6) [%] | inhibition at 10 min, 10 µM (CYP1A) [%]
CCCCOC(=O)NS(=O)(=O)c1sc(CC(C)C)nc1-c1ccc(Cn2ccnc2C(C)(C)C)cc1 [Example 4, Butyl ((4-(4-((2-(tert-butyl)-1H-imidazol-1-yl)methyl)phenyl)-2-isobutylthiazol-5-yl)sulfonyl) carbamate] | 68 | 12 | 29 | 7 | 66 | 24 | 180 (≈ 95.9 µg/mL) | 45 | 12 | −7.3 | – | – | – | – | – | –
CCCCOC(=O)[N-]S(=O)(=O)c1sc(CC(C)C)cc1-c1ccc(Cn2ccnc2C(C)(C)C)cc1.[K+] [Example 11B, Potassium (butoxycarbonyl)((3-(4-((2-(tert-butyl)-1H-imidazol-1-yl)methyl)phenyl)-5-isobutylthiophen-2-yl)sulfonyl)amide] | – | 18 | – | 10 | – | – | > 200 | 11 | – | – | 88 | 51 | 66 | -5.1 | 14 | 8.4
COC(=O)NS(=O)(=O)c1sc(CC(C)C)nc1-c1ccc(Cn2ccnc2C(C)(C)C)cc1 [Example 3, Methyl ((4-(4-((2-(tert-butyl)-1H-imidazol-1-yl)methyl)phenyl)-2-isobutylthiazol-5-yl)sulfonyl) carbamate] | 23 | >60 | 24 | >60 | 38 | 5.4 | 195 (≈ 95.7 µg/mL) | >60 | 12 | 8.4 | – | – | – | – | – | –
COC(=O)NS(=O)(=O)c1ccc(CC(C)C)cc1-c1ccc(Cn2ccnc2C(C)(C)C)cc1 [Example 1A, Methyl ((4′-((2-(tert-butyl)-1H-imidazol-1-yl)methyl)-5-isobutyl-[1,1′-biphenyl]-2-yl)sulfonyl)carbamate] | – | >60 | – | >60 | – | – | 140 (≈ 67.7 µg/mL) | >60 | – | – | 37 | 18 | 38 | 0 | 9 | 11
COC(=O)[N-]S(=O)(=O)c1ccc(CC(C)C)cc1-c1ccc(Cn2ccnc2C(C)(C)O)cc1.[K+] [Example 8B, Potassium ((4′-((2-(2-hydroxypropan-2-yl)-1H-imidazol-1-yl)methyl)-5-isobutyl-[1,1′-biphenyl]-2-yl)sulfonyl)(methoxycarbonyl)amide] | – | 41 | – | >60 | – | – | > 200 | >60 | – | – | 92 | 28 | 45 | 1.3 | 2.5 | 5.7
